Values of other authors, collected in US20200309767A1, “HIGH-THROUGHPUT IMAGING-BASED METHODS FOR PREDICTING CELL-TYPE-SPECIFIC TOXICITY OF XENOBIOTICS WITH DIVERSE CHEMICAL STRUCTURES” (priority 2015, published 2020).
Read-outs that look alike come from different tables or passages of the source.

Assays:
[1] = tested on: lung; conditions: cited from earlier work
[2] = tested on: human proximal tubular cells (PTCs); conditions: cited from earlier work
[3] = tested on: liver; conditions: in vivo; cited from earlier work
[4] = tested on: human kidney; conditions: cited from earlier work
[5] = known in vivo group, Toxic / Non-toxic
[6] = known human kidney toxicity flag 1/0

In the case of `CC(O)CCC(=O)c1ccoc1` (centres unmarked) [4-Ipomeanol], the Pulmonotoxic ([1]; known toxicity flag 1/0) is given as 0.

In the case of `C[C@H]1O[C@H](O[C@H]2[C@H](O)[C@@H](O)[C@@H](O[C@H]3[C@H](O)[C@@H](O)C(O)O[C@@H]3CO)O[C@@H]2CO)[C@H](O)[C@@H](O)[C@@H]1N[C@H]1C=C(CO)[C@@H](O)[C@H](O)[C@H]1O` (some centres unmarked) [Acarbose], the “PTC Toxicity” value ([2]; human, in vivo) is listed as “Non-toxic” and the PTC-toxic ([2]; known toxicity flag 1/0) is listed as 0.

In the case of `CC(=O)Nc1ccc(O)cc1` [Acetaminophen], the “PTC Toxicity” value ([2]; human, in vivo) is given as “Non-toxic”, the PTC-toxic ([2]; human, in vivo) is given as 0 and the Hepatotoxic [3] is given as 1. The Nephrotoxic ([4]; in vivo) was 1.

In the case of `CCCCc1oc2ccccc2c1C(=O)c1cc(I)c(OCCN(CC)CC)c(I)c1.Cl` [Amidoarone hydrochloride], the Pulmonotoxic ([1]; known toxicity flag 1/0) is given as 1.

In the case of `COc1cccc2c1cc([N+](=O)[O-])c1c(C(=O)O)cc3c(c12)OCO3` [Aristolochic acid], the “PTC Toxicity” value [2, 5] is listed as “Toxic”, the PTC-toxic ([2]; known toxicity flag 1/0) is listed as 1 and the Hepatotoxic [3] is listed as 1. For the same molecule, the Nephrotoxic [4, 6] was 1.

In the case of `O=[As]O[As]=O` (centres unmarked) [Arsenic(III) oxide], the “PTC Toxicity” value [2, 5] is given as “Toxic”, the PTC-toxic ([2]; known toxicity flag 1/0) is given as 1 and the Hepatotoxic [3] is given as 1. For the same molecule, the Nephrotoxic [4, 6] was 1.

In the case of `CC(O)(CS(=O)(=O)c1ccc(F)cc1)C(=O)Nc1ccc(C#N)c(C(F)(F)F)c1` (centres unmarked) [Bicalutamide], the Pulmonotoxic ([1]; human, in vivo) is given as 0.

In the case of `[Bi+3].[Bi+3].[O-2].[O-2].[O-2]` [Bismuth(III) oxide], the “PTC Toxicity” value [2, 5] is listed as “Toxic”, the PTC-toxic ([2]; known toxicity flag 1/0) is listed as 1 and the Hepatotoxic [3] is listed as 1. For the same molecule, the Nephrotoxic [4, 6] was 1.

For `Cc1cc(C(C)(C)C)c(O)c(C(C)(C)C)c1` [Butylated hydroxytoluene], the Pulmonotoxic ([1]; human, in vivo) is listed as 0.

For `[Cd+2].[Cl-].[Cl-]` [Cadmium(II) chloride], the “PTC Toxicity” value [2, 5] is given as “Toxic”, the PTC-toxic ([2]; known toxicity flag 1/0) is given as 1 and the Hepatotoxic [3] is given as 1. For the same molecule, the Nephrotoxic [4, 6] was 1 and the Pulmonotoxic ([1]; known toxicity flag 1/0) was 1.

In the case of `NC(=O)N1c2ccccc2C=Cc2ccccc21` [Carbamazepine], the Pulmonotoxic ([1]; human, in vivo) is given as 1.

For `O=C(Cc1cccs1)N[C@@H]1C(=O)N2C(C(=O)[O-])=C(C[n+]3ccccc3)CS[C@H]12` [Cephaloridine], the “PTC Toxicity” value ([2]; human, in vivo) is given as “Toxic”, the PTC-toxic ([2]; human, in vivo) is given as 1 and the Hepatotoxic [3] is given as 0. For the same molecule, the Nephrotoxic ([4]; in vivo) was 1.

For `CC(=O)OCC1=C(C(=O)O)N2C(=O)[C@@H](NC(=O)CCC[C@@H](N)C(=O)O)[C@H]2SC1` [Cephalosporin C], the “PTC Toxicity” value ([2]; human, in vivo) is listed as “Toxic”, the PTC-toxic ([2]; human, in vivo) is listed as 1 and the Hepatotoxic [3] is listed as 0. The Nephrotoxic ([4]; in vivo) was 1.

For `CC(=O)OCC1=C(C(=O)O)N2C(=O)[C@@H](NC(=O)Cc3cccs3)[C@H]2SC1` [Cephalothin], the “PTC Toxicity” value ([2]; human, in vivo) is given as “Toxic”, the PTC-toxic ([2]; human, in vivo) is given as 1 and the Hepatotoxic [3] is given as 0. For the same molecule, the Nephrotoxic ([4]; in vivo) was 1.

In the case of `CC1=C2C(=CO[C@H](C)[C@H]2C)C(O)=C(C(=O)O)C1=O` [Citrinin], the “PTC Toxicity” value ([2]; human, in vivo) is listed as “Toxic”, the PTC-toxic ([2]; human, in vivo) is listed as 1 and the Hepatotoxic [3] is listed as 0. For the same molecule, the Nephrotoxic ([4]; in vivo) was 1.

In the case of `[Cl][Cu][Cl]` [Copper(II) chloride], the “PTC Toxicity” value [2, 5] is listed as “Toxic”, the PTC-toxic ([2]; known toxicity flag 1/0) is listed as 1 and the Hepatotoxic [3] is listed as 1. For the same molecule, the Nephrotoxic [4, 6] was 1.

For `O=P1(N(CCCl)CCCl)NCCCO1` (centres unmarked) [Cyclophosphamide], the Pulmonotoxic ([1]; known toxicity flag 1/0) is listed as 1.

For `OC[C@@H](O)[C@@H](O)[C@H](O)[C@@H](O)CO` [D-sorbitol], the Pulmonotoxic ([1]; human, in vivo) is given as 0.

In the case of `C[C@@H]1C[C@H]2[C@@H]3CCC4=CC(=O)C=C[C@]4(C)[C@@]3(F)[C@@H](O)C[C@]2(C)[C@@]1(O)C(=O)CO` [Dexamethasone], the “PTC Toxicity” value ([2]; human, in vivo) is given as “Non-toxic”, the PTC-toxic ([2]; human, in vivo) is given as 0 and the Hepatotoxic [3] is given as 0. The Nephrotoxic ([4]; in vivo) was 0.

In the case of `CC(=O)C(C)=O` [Diacetyl], the Pulmonotoxic ([1]; human, in vivo) is listed as 1.

For `OCCO` [Ethylene glycol], the “PTC Toxicity” value ([2]; human, in vivo) is listed as “Non-toxic”, the PTC-toxic ([2]; human, in vivo) is listed as 0 and the Hepatotoxic [3] is listed as 0. For the same molecule, the Nephrotoxic ([4]; in vivo) was 1 and the Pulmonotoxic ([1]; human, in vivo) was 0.

For `[Ge+4].[O-2].[O-2]` [Germanium(IV) oxide], the “PTC Toxicity” value [2, 5] is given as “Toxic”, the PTC-toxic ([2]; known toxicity flag 1/0) is given as 1 and the Hepatotoxic [3] is given as 0. The Nephrotoxic [4, 6] was 1.

For `NCC(=O)O` [Glycine], the “PTC Toxicity” value ([2]; human, in vivo) is listed as “Non-toxic”, the PTC-toxic ([2]; human, in vivo) is listed as 0 and the Hepatotoxic [3] is listed as 0. The Nephrotoxic ([4]; in vivo) was 0.

For `[Cl][Au]` [Gold(I) chloride], the “PTC Toxicity” value ([2]; human, in vivo) is given as “Toxic”, the PTC-toxic ([2]; human, in vivo) is given as 1 and the Hepatotoxic [3] is given as 1. The Nephrotoxic ([4]; in vivo) was 1.

For `C[C@]12CCC(=O)C=C1CC[C@@H]1[C@@H]2[C@@H](O)C[C@@]2(C)[C@H]1CC[C@]2(O)C(=O)CO` [Hydrocortisone], the “PTC Toxicity” value ([2]; human, in vivo) is listed as “Non-toxic”, the PTC-toxic ([2]; human, in vivo) is listed as 0 and the Hepatotoxic [3] is listed as 0.

In the case of `CC(C)Cc1ccc(C(C)C(=O)O)cc1` (centres unmarked) [Ibuprofen], the “PTC Toxicity” value ([2]; human, in vivo) is given as “Non-toxic”, the PTC-toxic ([2]; human, in vivo) is given as 0 and the Hepatotoxic [3] is given as 1.

For `CC(=O)N1CCN(c2ccc(OCC3COC(Cn4ccnc4)(c4ccc(Cl)cc4Cl)O3)cc2)CC1` (centres unmarked) [Ketoconazole], the Pulmonotoxic ([1]; human, in vivo) is listed as 0.

In the case of `N[C@@H](Cc1ccc(O)c(O)c1)C(=O)O` [Levodopa], the “PTC Toxicity” value ([2]; human, in vivo) is given as “Non-toxic”.
